Test results taken from patent US20030022826A1, “Use of synthetic peptides to induce tolerance to pathogenic T and B cell epitopes of autoantigens or infectious agents” (priority 1987, published 2003).
Marks after values point to notes of the source that are not given here.

What was measured:
[1] = system: Th-B peptide, T1-SP10IIIB; experiment: Endpoint ELISA anti-peptide antibody titers in chimpanzees immunized with HIV env synthetic peptides; format: in vivo, chimpanzee; conditions: for immunogenicity in chimpanzees (antibody response): low (0.1 mg/kg) or high (0.5 mg/kg) doses in IFA
Procedure: Immunizations: For goats, 3 mg of peptide were injected intramuscularly in each gluteal region in complete Freund's adjuvant (CFA) (1st dose), then incomplete Freund's adjuvant (IFA) (subsequent doses). […]
When neither peptide design induced neutralizing anti-HIVIIIB antibodies, the peptide doses were increased to approximately 0.5 mg/kg (30 mg/animal) and the right-hand side neutralizing sequence of HIVIIIB gp120 V3 loop (the (A) region) (Hart et al, Proc. Natl. Acad. Sci. USA 88:9448; Rusche et al Proc. Natl. Acad. Sci. USA 85:3198)) (Table 8) was added to the Th-B peptide to enhance the ability of this peptide to induce anti-HIVIIIB neutralizing antibodies. After 3 monthly injections with either ˜0.5 mg/kg (30 mg) Th-B or F-Th-B peptide, the animals were rested for 6 months, and then reimmunized with either F-Th-B or Th-B with sequences from HIVIIIB, or with the Th-B peptide containing HIV env gp120 V3 sequences from the HIVMN isolate.

[2] = system: Th-B peptide, T1-SP10IIIB(A); experiment: PBMC 3H-thymidine incorporation response to HIV Th-B peptide in immunized chimpanzees; format: in vivo, chimpanzee; conditions: 7 day tritiated thymidine incorporation assays
Source text: Acpm=experimental cpm—control cpm.

[3] = system: HIVIIIB; experiment: Anti-HIVIIIB neutralizing antibodies in immunized goats (reverse transcriptase inhibition); format: in vivo, HIV; conditions: 3 mg, CFA then IFA, after the fourth immunization
Procedure: FIG. 15. […] Goat 102A was immunized with 3 mg of the F-Th-B peptide, F-T1-SP10IIIB(A) and goat 104A was immunized with the HIVIIIB Th-B peptide, T1-SP10IIIB. Immunizations were in CFA (first dose) and IFA (doses 2-4). Neutralizing titers are titers at which reverse transcriptase production was inhibited by 90% or greater.
Immunizations: For goats, 3 mg of peptide were injected intramuscularly in each gluteal region in complete Freund's adjuvant (CFA) (1st dose), then incomplete Freund's adjuvant (IFA) (subsequent doses). For immunization of chimpanzees, varying doses of peptides were injected IM in IFA in a total volume of 4 cc, with 1 cc injected into right and left upper arms and thighs.
(§1) HIV Neutralization Assays: The ability of chimpanzee or goat serum antibodies to neutralize HIV was determined in syncytium inhibition assay and reverse transcriptase inhibition assay as previously described (Palker et al, J. Immunol. 142:3612 (1989); Palker et al, Proc. Natl. Acad. Sci. USA 85:1932 (1988)). Sera were heat inactivated (30 min, 56° C.) prior to each assay.

[4] = system: human JY B cells; experiment: Peptide binding to human cells, flow cytometry with anti-gp120 mab 0.5beta; format: cell-based; conditions: mean channel fluoresence, peptide 10 ug/ml
Procedure: Anti-gp120 momoclonal antibody was 0.5beta from the NIAID AIDS Research and Reference Reagent Program (Matsushita et al J. Virol. 62:2107, 1988). […] The amount of fluoresence was determined on a flow cytometer and fluoresence brightness was expressed as MFC=mean channel fluoresence.

[5] = system: JY B cells; experiment: Peptide entry into cells, intracytoplasmic fluorescence of acetone-fixed cells; format: cell-based, human; conditions: for % Intracytoplasmic Positive: peptide 10 μg/ml, 21 hours at 37 degrees C
Procedure: Cells were incubated as descirbed in Table 13. After 21 hours at 37 degrees C., cytocentrifuge preparations of cells were prepared, acetone fixed, and reacted either with control mab P3x63 AgS or with anti-qp120 mab 0.5beta. Slides were read for either faint or bright intracytoplasmic fluoresence on a fluoresence microscope.

[6] = system: HIV LAI/IIIB; experiment: Syncytium inhibition assay with sera of immunized chimpanzees, HIV LAI/IIIB; format: in vivo
Procedure: as §1

[7] = system: HIV MN; experiment: Syncytium inhibition assay with sera of immunized chimpanzees, HIV MN; format: in vivo
Procedure: as §1

[8] = system: HIV LAI/IIIB; experiment: Reverse transcriptase inhibition assay with sera of immunized chimpanzees, HIV LAI/IIIB; format: in vivo
Procedure: as §1

[9] = system: HIV MN; experiment: Reverse transcriptase inhibition assay with sera of immunized chimpanzees, HIV MN; format: in vivo
Procedure: as §1

[10] = chimpanzee 1045 serum, Month 19, prior F-Th-B(IIIB)
[11] = chimpanzee 1045 serum, Month 20, prior F-Th-B(IIIB)
[12] = chimpanzee 1070 serum, Month 18, prior F-Th-B(IIIB)
[13] = chimpanzee 1070 serum, Month 19, prior F-Th-B(IIIB)
[14] = chimpanzee 1070 serum, Month 20, prior F-Th-B(IIIB)

KQIINMWQEVGKAMYACTRPNNNTRKSIRIQRGPG [Peptide T1-SP10IIIB, HIVIIIB Th-B peptide]
immunogenicity in chimpanzees (antibody response) [1]: potent immunogens | PBMC proliferation to T1-SP10IIIB(A) peptide [2]: induced high levels of proliferation | induction of serum anti-HIV neutralizing antibodies [3]: induced anti-HIV neutralizing antibodies in goats

KQIINMWQEVGKAMYACTRPNNNTRKSIRIQRGPGRAFVTI [T1-SP10IIIB(A), HIVIIIB Th-B peptide with (A) region]
immunogenicity in chimpanzees (antibody response) [1]: potent immunogens | PBMC proliferation to T1-SP10IIIB(A) peptide [2]: induced high levels of proliferation | MFC 4 Degrees C., 1 Hr. ([4]; 4 degrees C, 1 hour): 14.7 | MFC 37 Degrees C., 22 Hr. ([4]; 37 degrees C, 22 Hr.): 14.0 | % Intracytoplasmic Positive ([5]; Anti-gp120 mab 0.5beta): 0% | % Intracytoplasmic Positive ([5]; Control antibody (mab P3x63 AgS)): 0%

KQIINMWQEVGKAMYACTRPNYNKRKRIHIGPGRAFYTTK [T1-SP10MN(A), HIVMN Th-B peptide]
Reciprocal of ELISA Titer ([1]; chimpanzee 884, month 17, after Th-B(IIIB) months 2-14): 12,800 | Reciprocal of ELISA Titer ([1]; chimpanzee 884, month 18, after Th-B(IIIB) months 2-14): 25,600 | Reciprocal of ELISA Titer ([1]; chimpanzee 884, month 19, after Th-B(IIIB) months 2-14): 25,600 | Reciprocal of ELISA Titer ([1]; chimpanzee 884, month 20, after Th-B(IIIB) months 2-14): 51,200 | Reciprocal of ELISA Titer ([1]; chimpanzee 1028, month 17, after Th-B(IIIB) months 2-14, injections in PBS alone): 3,200 | Reciprocal of ELISA Titer ([1]; chimpanzee 1028, month 18, after Th-B(IIIB) months 2-14, injections in PBS alone): 6,400 | Reciprocal of ELISA Titer ([1]; chimpanzee 1028, month 19, after Th-B(IIIB) months 2-14, injections in PBS alone): 1,600 | Reciprocal of ELISA Titer ([1]; chimpanzee 1028, month 20, after Th-B(IIIB) months 2-14, injections in PBS alone): 6,400 | Reciprocal of ELISA Titer ([1]; chimpanzee 1045, month 17, after F-Th-B(IIIB) months 2-14 and Th-B(IIIB) month 16): 1,600 | Reciprocal of ELISA Titer ([1]; chimpanzee 1045, month 18, after F-Th-B(IIIB) months 2-14 and Th-B(IIIB) month 16): 6,400 | Reciprocal of ELISA Titer ([1]; chimpanzee 1045, month 19, after F-Th-B(IIIB) months 2-14 and Th-B(IIIB) month 16): 6,400 | Reciprocal of ELISA Titer ([1]; chimpanzee 1045, month 20, after F-Th-B(IIIB) months 2-14 and Th-B(IIIB) month 16): 51,200 | Reciprocal of ELISA Titer ([1]; chimpanzee 1070, month 17, after F-Th-B(IIIB) months 2-14 and Th-B(IIIB) month 16): 3,200 | Reciprocal of ELISA Titer ([1]; chimpanzee 1070, month 18, after F-Th-B(IIIB) months 2-14 and Th-B(IIIB) month 16): 25,600 | Reciprocal of ELISA Titer ([1]; chimpanzee 1070, month 19, after F-Th-B(IIIB) months 2-14 and Th-B(IIIB) month 16): 51,200 | Reciprocal of ELISA Titer ([1]; chimpanzee 1070, month 20 (month 20 immunization not given), after F-Th-B(IIIB) months 2-14 and Th-B(IIIB) month 16): 102,400# | Presence of Neutralization in Syncytium Inhibition Assay [6, 10]: +/− (≧49% and <80% inhibition of syncytia.) | Presence of Neutralization in Syncytium Inhibition Assay [6, 11]: − (<48% inhibition of syncytia.) | Presence of Neutralization in Syncytium Inhibition Assay [6, 12]: +/− (≧49% and <80% inhibition of syncytia.) | Presence of Neutralization in Syncytium Inhibition Assay [6, 13]: + (≧80% inhibition of syncytia, titer 1:10.) | Presence of Neutralization in Syncytium Inhibition Assay [6, 14]: +/− (≧49% and <80% inhibition of syncytia.) | Presence of Neutralization in Syncytium Inhibition Assay ([7]; chimpanzee 1045 serum, Month 18, prior F-Th-B(IIIB)): − (<48% inhibition of syncytia.) | Presence of Neutralization in Syncytium Inhibition Assay [7, 10]: − (<48% inhibition of syncytia.) | Presence of Neutralization in Syncytium Inhibition Assay [7, 11]: − (<48% inhibition of syncytia.) | Presence of Neutralization in Syncytium Inhibition Assay [7, 12]: − (<48% inhibition of syncytia.) | Presence of Neutralization in Syncytium Inhibition Assay [7, 13]: + (≧80% inhibition of syncytia, titer 1:10.) | Presence of Neutralization in Syncytium Inhibition Assay [7, 14]: ++ (≧80% inhibition of syncytia, titer 1:20.) | Reciprocal Titer in RT Inhibition Assay [8, 10]: 23 | Reciprocal Titer in RT Inhibition Assay [8, 11]: 22 | Reciprocal Titer in RT Inhibition Assay [8, 12]: 92 | Reciprocal Titer in RT Inhibition Assay [8, 13]: 100 | Reciprocal Titer in RT Inhibition Assay [8, 14]: 86 | Reciprocal Titer in RT Inhibition Assay ([9]; chimpanzee 884 serum, Month 18, prior Th-B(IIIB)): 20 | Reciprocal Titer in RT Inhibition Assay ([9]; chimpanzee 884 serum, Month 20, prior Th-B(IIIB)): 24 | Reciprocal Titer in RT Inhibition Assay ([9]; chimpanzee 1045 serum, Month 18, prior F-Th-B(IIIB), Th-B(IIIB)): 23 | Reciprocal Titer in RT Inhibition Assay ([9]; chimpanzee 1045 serum, Month 19, prior F-Th-B(IIIB), Th-B(IIIB)): 23 | Reciprocal Titer in RT Inhibition Assay ([9]; chimpanzee 1045 serum, Month 20, prior F-Th-B(IIIB), Th-B(IIIB)): 24 | Reciprocal Titer in RT Inhibition Assay ([9]; chimpanzee 1070 serum, Month 18, prior F-Th-B(IIIB), Th-B(IIIB)): 22 | Reciprocal Titer in RT Inhibition Assay ([9]; chimpanzee 1070 serum, Month 19, prior F-Th-B(IIIB), Th-B(IIIB)): 96 | Reciprocal Titer in RT Inhibition Assay ([9]; chimpanzee 1070 serum, Month 20, prior F-Th-B(IIIB), Th-B(IIIB)): 350 | detection of peptide inside the JY B cells ([5]; 10 ug/ml of peptide for 21 hours at 37 degrees C): could not be detected
